Assay results: US20060100567A1, “Microsurgical tissue treatment system” (Rocky Mountain Biosystems, Inc, priority 2004, published 2006)

Assay: Delivery of a topical anesthetic through micro-ablated stratum corneum
Type: in vivo
Details: solution of 4% lidocaine applied for five minutes to approx. 1 cm^2 area ablated by piezoelectric actuator with 60 micron aluminum oxide particles, 10-15 pulses, 20 kHz
Protocol: A piezoelectric actuator was fitted with 60 micron aluminum oxide particles fixed to its surface so as to provide an approximate 1 cm^2 treatment area. Ten to fifteen pulses of less than one second duration were applied with force of less than 1 pound to the area and frequency of 20 kHz. […] A solution of 4% lidocaine was applied to the area and incubated for five minutes. The excess lidocaine was wiped off, and a series of probes was made in and around the area of treatment using a 20 gauge needle or by pinching.

Question: With `CCN(CC)CC(=O)Nc1c(C)cccc1C` [lidocaine] as the molecule, how does the “anesthesia (sensation on probing with a 20 gauge needle or pinching)” value read?
Answer: The value was “significant anesthesia was obtained”.
